As usually defined, the IC50 is the midpoint of a concentration-inhibition curve. The viability, T/C is the result in the treated group divided by that in the control group, in per cent.

This note sets out measurements from PubChem BioAssay AID1919001 (Molecular Pharmacology Branch, DTP, NCI, 2023).

Where “and” joins values, the source holds several entries; their conditions need not be identical. Identical values can stand only once. Where only a bound is given, the exact number is not on record here.

The test system of the test is 699152-130-R-J1-PDC complex spheroid growth. Kind of test: Anticancer human tumor 699152-130-R-J1-PDC patient-derived pancreatic carcinoma cell line growth inhibition [AhR]. The following applies: for viability, T/C: stronger effect = lower value. The method, boiled down: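 Spheroids combined tumor cells with HUVEC endothelial cells and human MSCs as stroma. AhR antagonists were paired with standard or investigational drugs, each dosed in half-log steps down from near clinical Cmax, or from 10 microM where Cmax was unknown.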

The mark [1] stands for this setting: curve of first compound, second compound 0.1 µM.
Where [2] appears, read: curve of first compound, second compound 0.316 µM.
Setting [3] is: curve of first compound, second compound 1 µM.
Setting [4] is: curve of first compound, second compound 3.16 µM.
Where [5] appears, read: curve of first compound, second compound 10 µM.
Setting [6] is: second compound 0.1 µM, first compound 0.0316 µM.
Setting [7] is: second compound 0.1 µM, first compound 0.1 µM.
The mark [8] stands for this setting: second compound 0.1 µM, first compound 0.316 µM.
[9] abbreviates: second compound 0.1 µM, first compound 1 µM.
The mark [10] stands for this setting: second compound 0.1 µM, first compound 3.16 µM.
[11] abbreviates: second compound 0.1 µM, first compound 10 µM.
[12] abbreviates: second compound 0.316 µM, first compound 0.0316 µM.
Setting [13] is: second compound 0.316 µM, first compound 0.1 µM.
[14] abbreviates: second compound 0.316 µM, first compound 0.316 µM.
Setting [15] is: second compound 0.316 µM, first compound 1 µM.
The mark [16] stands for this setting: second compound 0.316 µM, first compound 3.16 µM.
Where [17] appears, read: second compound 0.316 µM, first compound 10 µM.
Where [18] appears, read: second compound 1 µM, first compound 0.0316 µM.
The mark [19] stands for this setting: second compound 1 µM, first compound 0.1 µM.
Where [20] appears, read: second compound 1 µM, first compound 0.316 µM.
The mark [21] stands for this setting: second compound 1 µM, first compound 1 µM.
[22] abbreviates: second compound 1 µM, first compound 3.16 µM.
The mark [23] stands for this setting: second compound 1 µM, first compound 10 µM.
The mark [24] stands for this setting: second compound 3.16 µM, first compound 0.0316 µM.
Where [25] appears, read: second compound 3.16 µM, first compound 0.1 µM.
[26] abbreviates: second compound 3.16 µM, first compound 0.316 µM.
The mark [27] stands for this setting: second compound 3.16 µM, first compound 1 µM.
[28] abbreviates: second compound 3.16 µM, first compound 3.16 µM.
[29] abbreviates: second compound 3.16 µM, first compound 10 µM.
Where [30] appears, read: second compound 10 µM, first compound 0.0316 µM.
Where [31] appears, read: second compound 10 µM, first compound 0.1 µM.
[32] abbreviates: second compound 10 µM, first compound 0.316 µM.
The mark [33] stands for this setting: second compound 10 µM, first compound 1 µM.
The mark [34] stands for this setting: second compound 10 µM, first compound 3.16 µM.
[35] abbreviates: second compound 10 µM, first compound 10 µM.
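Further: compound exposure lasted 7 days after spheroids had grown for 3 days.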

On to `COc1cccc2c1C(=O)c1c(O)c3c(c(O)c1C2=O)CC(O)(C(=O)CO)CC3OC1CC(N)C(O)C(C)O1` (centres undefined) + Cc1cncc(-c2nc(NCCc3c[nH]c4ccccc34)c3ncn(C(C)C)c3n2)c1, for which the half-inhibitory concentration (IC50) is, setting by setting: under setting [1], 349 nM; under setting [2], 342 nM; under setting [3], 356 nM; under setting [4], 117 nM; under setting [5], below 31.6 nM. The viability, T/C was 67.3% under setting [6]; 64.1% under setting [7]; 51.4% under setting [8]; 25.4% under setting [9]; 2.77% under setting [10]; 7.37% under setting [11]. The viability, T/C runs as follows: under setting [12], 62.9%; under setting [13], 58.7%; under setting [14], 51.6%; under setting [15], 22.9%; under setting [16], 2.99%; under setting [17], 7.49%. Also, the viability, T/C by setting is: under setting [18], 70.8%; under setting [19], 71.5%; under setting [20], 52.5%; under setting [21], 20.9%; under setting [22], 3.69%; under setting [23], 6.86%. In addition, the viability, T/C is, setting by setting: under setting [24], 51.5%; under setting [25], 53.3%; under setting [26], 34.7%; under setting [27], 5.89%; under setting [28], 4.86%; under setting [29], 7.43%. Also, the viability, T/C under setting [30] was 14.6%; the viability, T/C under setting [31] is 16.3%; the viability, T/C under setting [32] was 14.2%; the viability, T/C under setting [33] was 1.29%; the viability, T/C under setting [34] was 5.06%; the viability, T/C under setting [35] is 5.36%.
On to `O=C(c1cc(Cc2n[nH]c(=O)c3ccccc23)ccc1F)N1CCN(C(=O)C2CC2)CC1`, for which the viability, T/C (compound 0.0316 µM) was 98.3% and 101% and 99.8%; the viability, T/C (compound 0.1 µM) was 104% and 105% and 98.3%; the viability, T/C (compound 0.316 µM) is 101% and 95% and 92%; the viability, T/C (compound 1 µM) was 104% and 102% and 95.3%; the viability, T/C (compound 3.16 µM) was 98.9% and 93% and 89.2%; the viability, T/C (compound 10 µM) is 103% and 82.8% and 83.2%. Further, the IC50 (curve of compound) was above 10000 nM.
Turning to `O=C(C=Cn1cnc(-c2cc(C(F)(F)F)cc(C(F)(F)F)c2)n1)NNc1cnccn1`, the viability, T/C is 99.1% and 89.9% and 89% (compound 0.00949 µM); 98.2% and 95.7% and 107% (compound 0.03 µM); 92% and 79.8% and 82.9% (compound 0.0949 µM); 73.7% and 77.4% and 74.8% (compound 0.3 µM); 69.4% and 79.6% and 90% (compound 0.949 µM); 77.4% and 72.9% and 69.9% (compound 3 µM). Moreover, under “curve of compound”, the half-maximal inhibitory concentration (IC50) was above 3000 nM.
`COc1cc(Nc2ncc3c(n2)-c2ccc(Cl)cc2C(c2c(F)cccc2OC)=NC3)ccc1C(=O)O` + Cc1ccccc1N=Nc1ccc(NC(=O)c2ccnn2C)c(C)c1: the IC50 is, setting by setting: under setting [1], above 10000 nM; under setting [2], 6410 nM; under setting [3], above 10000 nM; under setting [4], above 10000 nM; under setting [5], above 10000 nM. Also, the viability, T/C by setting is: under setting [6], 89.9%; under setting [7], 80.2%; under setting [8], 65.3%; under setting [9], 54.5%; under setting [10], 54.4%; under setting [11], 56.6%. Further, the viability, T/C under setting [12] was 83.1%; the viability, T/C under setting [13] is 68.7%; the viability, T/C under setting [14] was 65.5%; the viability, T/C under setting [15] was 59.5%; the viability, T/C under setting [16] is 51.7%; the viability, T/C under setting [17] was 48.4%. Also, the viability, T/C under setting [18] is 86.8%; the viability, T/C under setting [19] was 71.7%; the viability, T/C under setting [20] is 74.3%; the viability, T/C under setting [21] was 60.5%; the viability, T/C under setting [22] is 56.9%; the viability, T/C under setting [23] is 51.7%. Moreover, the viability, T/C is 86.3% under setting [24]; 82.6% under setting [25]; 68.9% under setting [26]; 61.1% under setting [27]; 54.2% under setting [28]; 50.1% under setting [29]. For the same compound, the viability, T/C is 91.7% under setting [30]; 94.7% under setting [31]; 74.8% under setting [32]; 64.8% under setting [33]; 66.8% under setting [34]; 63.6% under setting [35].
